Read-outs that look alike come from different tables or passages of the source.
How the values were obtained:
[1] = target: T1, human TRPV1 receptor (hTRPV1) (Homo sapiens (Human), UniProt Q8NER1); experiment: Capsaicin activation assay (FLIPR intracellular Ca2+); type: cell-based; details: inhibition of capsaicin-induced intracellular Ca2+ increase, read-out: hTRPV1 cap IC50
Procedure, shortened: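 HEK293 cells stably expressing human TRPV1, loaded with Calcium-4 dye 90–120 min at room temperature, preincubated 3 min with compound (12-point one-third-log range) before capsaicin (200 nM as 4× solution). Peak FLIPR fluorescence minus baseline expressed as percent of 50 nM capsaicin control response.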

[2] = target: T1, human TRPV1 receptor (hTRPV1); experiment: Acid activation assay (pH 5.0, FLIPR intracellular Ca2+); type: cell-based; details: 37.5 μM antagonist, percentage of the maximal pH 5.0-induced response remaining; for remaining activity at 37.5 µM: read-out: hTRPV1 H+ (max % remain)
Procedure, shortened: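 1321N1 astrocytoma cells stably expressing homomeric hTRPV1, loaded with Calcium-4 dye 90–120 min at 25 °C. Compounds, 12-point half-log range, added 3 min before pH 5.0 DPBS/MES challenge; intracellular Ca2+ read by FLIPR fluorescence.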

Sprague-Dawley rats = experiment: Rat tail immersion assay (noxious thermosensation); type: in vivo; details: for % Increase in tail withdrawal latency / change in vivo at 100 µmol/kg: rat, 100 μmol/kg oral, one hour post dosing, 55° C. water bath, relative to vehicle; for change in vivo at 100 µmol/kg: 1 h
Method: Adult male Sprague-Dawley rats (250-300 g body weight, Charles River Laboratories, Portage, Mich.) were used. Animal handling and experimental protocols were approved by the Institutional Animal Care and Use Committee (IACUC) at Abbott Laboratories. For all surgical procedures, animals were maintained under isoflurane anesthesia (4-5% to induce, 1-3% to maintain), and the incision sites were sterilized using a 10% povidone-iodine solution prior to and after surgeries.
Compounds were tested for their effects on noxious thermosensation using the tail immersion assay. Testing was performed one hour following oral administration of 100 μmol/kg of the compound in 10% ethanol/20% Tween-80/70% PEG-400 (2 mL/kg). Morphine (6 mg/kg) was administered interperitoneally (i.p.) using saline (2 mL/kg) as the vehicle. For testing, a circulating water bath was heated to 55° C. Thirty to sixty minutes post dosing, the rats were handled for a few seconds to calm them down and then cupped with their back against the tester's hand at a slight angle with head facing away from the tester. With rat in one hand and a 0.01 second stopwatch in the other hand, the tail was quickly immersed 6-8 cm in the water bath or to a distance leaving 2-3 cm of tail out of water. The timer was started simultaneously. When the rat flinched or attempted withdrawal, timer was immediately stopped and the rat's tail was quickly removed from water bath. This response latency (in seconds) was recorded. Process was repeated 3 times with 3-4 minutes between readings and the average response latency was calculated.
For a given example, a percent increase in the average response latency (in seconds) for tail withdrawal relative to a vehicle control was determined. % increase=[(tc−tv)/tv]×100%
tc=response latency (in seconds) with oral dosing of compounds
tv=response latency (in seconds) with oral dosing of vehicle
The % increases in tail withdrawal latency relative to vehicle control are divided into the following categories: […]

[3] = Table 1, HEK293 cells expressing human TRPV1
[4] = read-out: % Increase in tail withdrawal latency

T1 sequence (Q8NER1 whole entry): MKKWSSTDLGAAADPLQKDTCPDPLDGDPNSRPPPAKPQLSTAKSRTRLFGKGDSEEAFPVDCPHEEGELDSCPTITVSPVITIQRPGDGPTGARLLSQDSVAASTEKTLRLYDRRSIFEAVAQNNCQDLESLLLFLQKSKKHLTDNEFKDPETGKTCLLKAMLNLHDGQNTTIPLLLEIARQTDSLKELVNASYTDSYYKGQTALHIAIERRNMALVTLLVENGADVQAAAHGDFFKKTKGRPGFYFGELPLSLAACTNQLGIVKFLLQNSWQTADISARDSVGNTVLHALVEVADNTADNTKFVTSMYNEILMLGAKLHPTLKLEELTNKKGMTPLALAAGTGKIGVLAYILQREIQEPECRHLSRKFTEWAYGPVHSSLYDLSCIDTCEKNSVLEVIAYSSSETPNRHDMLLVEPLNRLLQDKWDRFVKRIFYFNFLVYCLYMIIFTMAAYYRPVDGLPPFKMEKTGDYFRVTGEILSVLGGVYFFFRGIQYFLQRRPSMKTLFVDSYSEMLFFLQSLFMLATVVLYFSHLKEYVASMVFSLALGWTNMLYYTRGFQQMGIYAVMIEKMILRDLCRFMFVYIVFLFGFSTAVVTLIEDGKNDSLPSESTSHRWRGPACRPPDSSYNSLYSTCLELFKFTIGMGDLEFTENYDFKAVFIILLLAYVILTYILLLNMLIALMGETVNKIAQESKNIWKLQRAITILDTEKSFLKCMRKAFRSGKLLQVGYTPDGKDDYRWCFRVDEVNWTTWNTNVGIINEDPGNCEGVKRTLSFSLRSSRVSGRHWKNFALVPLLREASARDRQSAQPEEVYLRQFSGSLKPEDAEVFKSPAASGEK

SMILES: O=C(Nc1cccc2c1C[C@@H](O)C2)N[C@@H]1CC[C@H](c2ccccc2)C1 [Example 2, 1-[(2S)-2-hydroxy-2,3-dihydro-1H-inden-4-yl]-3-[(1R,3S)-3-phenylcyclopentyl]urea]
- IC50 [1, 3]: 29 nM
- IC50 ([1]; Table 2): 29 nM
- remaining activity at 37.5 µM ([2]; Table 1): 40%
- remaining activity at 37.5 µM ([2]; Table 2): 40%
- % Increase in tail withdrawal latency (Sprague-Dawley rats): −

SMILES: O=C(Nc1cccc2[nH]ncc12)N[C@@H]1CC[C@H](c2ccccc2)C1 [Example 7, 1-(1H-indazol-4-yl)-3-[(1R,3S)-3-phenylcyclopentyl]urea]
- IC50 [1, 3]: 9 nM
- IC50 ([1]; Table 2): 9 nM
- remaining activity at 37.5 µM ([2]; Table 1): 32%
- remaining activity at 37.5 µM ([2]; Table 2): 32%
- % Increase in tail withdrawal latency (Sprague-Dawley rats): −

SMILES: Cc1cc2c(NC(=O)N[C@@H]3CC[C@@H](c4ccccc4)C3)c(F)ccc2cn1 [Example 20, 1-(6-fluoro-3-methylisoquinolin-5-yl)-3-[(1R,3R)-3-phenylcyclopentyl]urea]
- IC50 [1, 3]: 5 nM
- IC50 ([1]; Table 2): 5 nM
- remaining activity at 37.5 µM ([2]; Table 1): 32%
- remaining activity at 37.5 µM ([2]; Table 2): 32%
- % Increase in tail withdrawal latency (Sprague-Dawley rats): −

SMILES: Cc1cc2c(NC(=O)N[C@H]3CC[C@@H](c4ccccc4)C3)c(F)ccc2cn1 [Example 27, 1-(6-fluoro-3-methylisoquinolin-5-yl)-3-[(1S,3R)-3-phenylcyclopentyl]urea]
- IC50 [1, 3]: 7 nM
- IC50 ([1]; Table 2): 6 nM
- remaining activity at 37.5 µM ([2]; Table 1): 60%
- remaining activity at 37.5 µM ([2]; Table 2): 60%
- % Increase in tail withdrawal latency (Sprague-Dawley rats): −

SMILES: O=C(Nc1cccc2[nH]ncc12)N[C@@H]1C=C[C@H](c2ccccc2)C1 [Example 48, 1-(1H-indazol-4-yl)-3-[(1S,4R)-4-phenylcyclopent-2-en-1-yl]urea]
- IC50 [1, 3]: 42 nM
- IC50 ([1]; Table 2): 42 nM
- remaining activity at 37.5 µM ([2]; Table 1): 49%
- remaining activity at 37.5 µM ([2]; Table 2): 49%
- % Increase in tail withdrawal latency (Sprague-Dawley rats): −

SMILES: O=C(Nc1cccc2[nH]ncc12)N[C@@H]1CC[C@@H](c2ccccc2F)C1 [Example 66, 1-[(1R,3R)-3-(2-fluorophenyl)cyclopentyl]-3-(1H-indazol-4-yl)urea]
- IC50 [1, 3]: 8.2 nM
- IC50 ([1]; Table 2): 8 nM
- remaining activity at 37.5 µM ([2]; Table 1): 29%
- remaining activity at 37.5 µM ([2]; Table 2): 29%
- change in vivo at 100 µmol/kg (Sprague-Dawley rats; [4]): > 25%

SMILES: Cn1c(=O)ccc2c(NC(=O)N[C@@H]3CC[C@@H](c4cccc(F)c4)C3)cccc21 [Example 78, 1-[(1R,3R)-3-(3-fluorophenyl)cyclopentyl]-3-(1-methyl-2-oxo-1,2-dihydroquinolin-5-yl)urea]
- IC50 [1, 3]: 6.5 nM
- IC50 ([1]; Table 2): 7 nM
- remaining activity at 37.5 µM ([2]; Table 1): 78%
- remaining activity at 37.5 µM ([2]; Table 2): 78%
- change in vivo at 100 µmol/kg (Sprague-Dawley rats; [4]): 10 to 25%

SMILES: CN1C(=O)CCc2c(NC(=O)N[C@H]3CC[C@H](c4ccccc4)C3)cccc21 [Example 96, 1-(1-methyl-2-oxo-1,2,3,4-tetrahydroquinolin-5-yl)-3-[(1S,3S)-3-phenylcyclopentyl]urea]
- IC50 [1, 3]: 63 nM
- IC50 ([1]; Table 2): 63 nM
- remaining activity at 37.5 µM ([2]; Table 1): 66%
- remaining activity at 37.5 µM ([2]; Table 2): 66%
- change in vivo at 100 µmol/kg (Sprague-Dawley rats; [4]): 10 to 25%

SMILES: Cc1cc2c(NC(=O)N[C@H]3CC[C@@H](c4nc(C)cs4)C3)c(F)ccc2cn1 [Example 135, 1-(6-fluoro-3-methylisoquinolin-5-yl)-3-[(1S,3R)-3-(4-methyl-1,3-thiazol-2-yl)cyclopentyl]urea]
- IC50 [1, 3]: 1790 nM
- remaining activity at 37.5 µM ([2]; Table 1): 57%

SMILES: O=C(Nc1cccc2c(Cl)nccc12)N[C@@H]1CC[C@H](c2ccccc2)C1 [Example 136, 1-(1-chloroisoquinolin-5-yl)-3-[(1R,3S)-3-phenylcyclopentyl]urea]
- IC50 [1, 3]: > 37500 nM
- remaining activity at 37.5 µM ([2]; Table 1): 46%

SMILES: O=C(Nc1cccc2[nH]ccc12)N[C@@H]1CC[C@H](c2ccccc2)C1 [Example 137, 1-(1H-indol-4-yl)-3-[(1R,3S)-3-phenylcyclopentyl]urea]
- IC50 [1, 3]: 100 nM
- remaining activity at 37.5 µM ([2]; Table 1): 42%

SMILES: O=C(Nc1cccc2c1CCCC2)N[C@@H]1CC[C@H](c2ccccc2)C1 [Example 138, 1-[(1R,3S)-3-phenylcyclopentyl]-3-(5,6,7,8-tetrahydronaphthalen-1-yl)urea]
- IC50 [1, 3]: 156 nM
- remaining activity at 37.5 µM ([2]; Table 1): 0%

SMILES: CC(C)Cc1cc2c(NC(=O)N[C@@H]3CC[C@H](c4ccccc4)C3)c(F)ccc2cn1 [Example 139, 1-[6-fluoro-3-(2-methylpropyl)isoquinolin-5-yl]-3-[(1R,3S)-3-phenylcyclopentyl]urea]
- IC50 [1, 3]: > 37500 nM
- remaining activity at 37.5 µM ([2]; Table 1): 89%

SMILES: CCc1cc2c(NC(=O)N[C@@H]3CC[C@H](c4ccccc4)C3)c(F)ccc2cn1 [Example 140, 1-(3-ethyl-6-fluoroisoquinolin-5-yl)-3-[(1R,3S)-3-phenylcyclopentyl]urea]
- IC50 [1, 3]: 9600 nM
- remaining activity at 37.5 µM ([2]; Table 1): 90%

SMILES: Cc1nc(N)cc2c(NC(=O)N[C@@H]3CC[C@H](c4ccccc4)C3)cccc12 [Example 141, 1-(3-amino-1-methylisoquinolin-5-yl)-3-[(1R,3S)-3-phenylcyclopentyl]urea]
- IC50 [1, 3]: > 37500 nM
- remaining activity at 37.5 µM ([2]; Table 1): 82%

SMILES: O=C(Nc1ccc2c(c1)NC(=O)C(N1CCOCC1)C2)N[C@@H]1CC[C@H](c2ccccc2)C1 (stereo partly drawn) [Example 142, 1-[3-(morpholin-4-yl)-2-oxo-1,2,3,4-tetrahydroquinolin-7-yl]-3-[(1R,3S)-3-phenylcyclopentyl]urea]
- IC50 [1, 3]: 116 nM
- remaining activity at 37.5 µM ([2]; Table 1): 66%

SMILES: O=C(Nc1ccc2c(c1)NC(=O)C(N1CCCOCC1)C2)N[C@@H]1CC[C@H](c2ccccc2)C1 (stereo partly drawn) [Example 143, 1-[3-(1,4-oxazepan-4-yl)-2-oxo-1,2,3,4-tetrahydroquinolin-7-yl]-3-[(1R,3S)-3-phenylcyclopentyl]urea]
- IC50 [1, 3]: 145 nM
- remaining activity at 37.5 µM ([2]; Table 1): 24%

SMILES: COCCN(C)C1Cc2ccc(NC(=O)N[C@@H]3CC[C@H](c4ccccc4)C3)cc2NC1=O (stereo partly drawn) [Example 144, 1-{3-[(2-methoxyethyl)(methyl)amino]-2-oxo-1,2,3,4-tetrahydroquinolin-7-yl}-3-[(1R,3S)-3-phenylcyclopentyl]urea]
- IC50 [1, 3]: > 37500 nM
- remaining activity at 37.5 µM ([2]; Table 1): 62%

SMILES: CN1CCOc2ccc(NC(=O)N[C@@H]3CC[C@H](c4ccccc4)C3)cc21 [Example 145, 1-(4-methyl-3,4-dihydro-2H-1,4-benzoxazin-6-yl)-3-[(1R,3S)-3-phenylcyclopentyl]urea]
- IC50 [1, 3]: 614 nM
- remaining activity at 37.5 µM ([2]; Table 1): 91%

SMILES: O=C(Nc1ccc2c(c1)NCCO2)N[C@@H]1CC[C@H](c2ccccc2)C1 [Example 146, 1-(3,4-dihydro-2H-1,4-benzoxazin-6-yl)-3-[(1R,3S)-3-phenylcyclopentyl]urea]
- IC50 [1, 3]: > 37500 nM
- remaining activity at 37.5 µM ([2]; Table 1): 39%

SMILES: CC(=O)Nc1nc2c(Oc3cc(-c4ccc(C(F)(F)F)cc4)ncn3)cccc2s1 [H, reference compound]
- hTRPV1 H+ (max % remain) ([2]; Table 2): 10%
- change in vivo at 100 µmol/kg (Sprague-Dawley rats; [4]): > 25%

SMILES: CC(C)(C)c1ccc(Nc2ncnc3cc(-c4ncccc4C(F)(F)F)ccc23)cc1 [I, reference compound]
- remaining activity at 37.5 µM ([2]; Table 2): 1%
- change in vivo at 100 µmol/kg (Sprague-Dawley rats; [4]): > 25%

SMILES: CC(C)(C)c1ccc2c(c1)CC[C@H]2NC(=O)Nc1cccc2[nH]ncc12 [J, reference compound]
- remaining activity at 37.5 µM ([2]; Table 2): 1%
- change in vivo at 100 µmol/kg (Sprague-Dawley rats; [4]): > 25%

SMILES: Cc1nc(Nc2cccc3c2C[C@H](O)CC3)oc1-c1ccc(C(F)(F)F)cc1 [K, reference compound]
- remaining activity at 37.5 µM ([2]; Table 2): 3%
- change in vivo at 100 µmol/kg (Sprague-Dawley rats; [4]): > 25%

SMILES: Cc1cccnc1N1CC=C(C(=O)Nc2ccc(S(=O)(=O)C(F)(F)F)cc2)CC1 [L, reference compound]
- remaining activity at 37.5 µM ([2]; Table 2): 2%
- change in vivo at 100 µmol/kg (Sprague-Dawley rats; [4]): > 25%

SMILES: CN1CC[C@]23c4c5ccc(O)c4O[C@H]2[C@@H](O)C=C[C@H]3[C@H]1C5 [Morphine, reference compound]
- change in vivo at 6 mg/kg (Sprague-Dawley rats; Rattus norvegicus, ip, read-out: % Increase in tail withdrawal latency): > 25%
